These are literature values, as cited in patent US20080095853A1, “Modified Release For Proton Pump Inhibitors” (priority 2004, published 2008).

For this series, the system named is gastric acid. The settings on record: splitting a 40 mg dose into 20 mg bid.

Consider `COc1ccc2nc([S@@+]([O-])Cc3ncc(C)c(OC)c3C)[nH]c2c1` [esomeprazole], for which the “nocturnal gastric acid suppression” value is given as “significantly improved”.
